{"source": "patent US20090048203A1", "about": "“SUBSTITUTED ADENINES AND THE USES THEREOF” (priority 2004, published 2009)", "key": {"[1]": {"molecular_target": "S. pneumoniae LigA (Streptococcus pneumoniae serotype 4, UniProt Q97QT2)", "sequence (Q97QT2 whole entry)": "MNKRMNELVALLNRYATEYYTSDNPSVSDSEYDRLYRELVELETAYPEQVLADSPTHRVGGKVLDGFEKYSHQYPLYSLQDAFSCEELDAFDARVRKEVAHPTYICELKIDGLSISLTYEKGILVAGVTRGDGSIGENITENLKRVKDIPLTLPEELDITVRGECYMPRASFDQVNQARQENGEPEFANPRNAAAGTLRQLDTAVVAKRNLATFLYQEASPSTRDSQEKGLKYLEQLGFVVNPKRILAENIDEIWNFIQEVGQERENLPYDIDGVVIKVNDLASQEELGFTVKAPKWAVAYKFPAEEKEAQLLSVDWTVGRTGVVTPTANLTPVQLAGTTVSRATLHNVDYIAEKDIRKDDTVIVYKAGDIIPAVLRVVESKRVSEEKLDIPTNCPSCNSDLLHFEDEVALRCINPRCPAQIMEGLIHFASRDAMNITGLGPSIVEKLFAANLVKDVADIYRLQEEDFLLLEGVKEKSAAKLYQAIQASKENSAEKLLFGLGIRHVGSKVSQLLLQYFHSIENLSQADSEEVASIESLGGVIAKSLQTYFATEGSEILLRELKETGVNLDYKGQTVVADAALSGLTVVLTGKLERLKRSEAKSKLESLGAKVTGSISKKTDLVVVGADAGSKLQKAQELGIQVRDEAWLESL", "assay": "DNA ligase inhibition, FRET detection assay", "format": "biochemical", "details": "ten compound concentrations; read-out: IC50 (μM) against S. pneumoniae LigA", "procedure": "Compounds were tested for inhibition of DNA ligase using a Fluorescence Resonance Energy Transfer (FRET) detection assay as previously described (Chen et al. 2002. Analytical Biochemistry 309: 232-240; Benson et al. 2004. Analytical Biochemistry 324:298-300). Assays were performed in 384-well polystyrene flat-bottom black plates in 30 μl reactions containing 3 μl compound dissolved in dimethylsulfoxide, 20 μl 1.5× Enzyme Working Solution (25% glycerol, 45 mM potassium chloride, 45 mM ammonium sulfate, 15 mM dithiothreitol, 1.5 mM ethylenediaminetetraacetic acid (EDTA), 0.003% Brij 35, 75 mM MOPS pH 7.5, 150 nM bovine serum albumin, 1.5 μM NAD^+, 60 nM DNA substrate, 0.375 nM enzyme in water) and 7 μl […] magnesium chlorine solution (96 mM magnesium chloride, 20% glycerol in water) to initiate the reaction. The DNA substrate is similar to that described in Benson et al. (2004. Analytical Biochemistry 324:298-300). The assay reactions were incubated at room temperature for approximately 20 minutes before being terminated by the addition of 30 μl Quench reagent (8 M Urea, 1 M Trizma base, 20 mM EDTA in water). Plates were read in a Tecan Ultra plate reader at two separate wavelengths—Read 1: excitation 485, emission 535, Read 2: excitation 485, emission 595. Data is initially expressed as a ratio of the 595/535 emission values and percent inhibition values were calculated using […] dimethylsulfoxide (no compound) as the 0% inhibition and EDTA-containing (50 mM) reactions as 100% inhibition controls. Compound potency was based on IC50 measurements determined from reactions performed in the presence of ten different compound concentrations."}, "[2]": {"tested_on": "S. pneumoniae", "assay": "Bacterial susceptibility testing, microbroth dilution (MIC)", "format": "cell-based", "details": "Streptococcus pneumoniae; lowest drug concentration able to reduce growth by 80% or more; read-out: MIC (μg/ml) against S. pneumoniae", "procedure": "Compounds were tested for antimicrobial activity by susceptibility testing using microbroth dilution methods recommended by NCCLS. Compounds were dissolved in dimethylsulfoxide and tested in 10 doubling dilutions in the susceptibility assays such that the final dimethylsulfoxide concentration in the assay was 2% (v/v). The organisms used in the assay were grown overnight on appropriate agar media and then suspended in the NCCLS-recommended liquid susceptibility-testing media. The turbidity of each suspension was adjusted to be equal to a 0.5 McFarland standard, a further 1-in-10 dilution was made into the same liquid medium to prepare the final organism suspension, and 100 μL of this suspension was added to each well of a microtiter plate containing compound dissolved in 2 μL of dimethylsulfoxide. Plates were incubated under appropriate conditions of atmosphere and temperature and for times according to NCCLS standard methods prior to being read. The Minimum Inhibitory Concentration (MIC) was determined as the lowest drug concentration able to reduce growth by 80% or more."}}, "data": [{"smiles": "Nc1nc(SCc2ccco2)nc2c1ncn2C1CCCO1", "note": "(stereo not shown) [Example 6, 2-[(2-furylmethyl)thio]-9-(tetrahydrofuran-2-yl)-9H-purin-6-amine]", "values": [{"measurement": "IC50", "setting": "[1]", "value": 1.8, "unit": "µM"}]}, {"smiles": "Nc1nc(OCc2ccccc2)nc2c1ncn2C1CCCO1", "note": "(stereo not shown) [Example 25, 2-(benzyloxy)-9-(tetrahydrofuran-2-yl)-9H-purin-6-amine]", "values": [{"measurement": "IC50", "setting": "[1]", "value": 4, "unit": "µM"}]}, {"smiles": "Nc1nc(OC2CCCCC2)nc2c1ncn2C1CCCO1", "note": "(stereo not shown) [Example 27, 2-(cyclohexyloxy)-9-(tetrahydrofuran-2-yl)-9H-purin-6-amine]", "values": [{"measurement": "MIC", "setting": "[2]", "value": 8, "unit": "µg/mL"}]}, {"smiles": "Nc1nc(OC2CCC3CCCCC3C2)nc2c1ncn2C1CCCO1", "note": "(stereo not shown) [Example 62, 2-(decahydronaphthalen-2-yloxy)-9-(tetrahydrofuran-2-yl)-9H-purin-6-amine]", "values": [{"measurement": "MIC", "setting": "[2]", "value": 4, "unit": "µg/mL"}]}, {"smiles": "Nc1nc(OC2CCCC2)nc2c1ncn2C1OCCC1N", "note": "(stereo not shown) [Example 128, 9-(3-aminotetrahydrofuran-2-yl)-2-(cyclopentyloxy)-9H-purin-6-amine]", "values": [{"measurement": "IC50", "setting": "[1]", "value": 0.7, "unit": "µM"}]}, {"smiles": "Nc1nc(OC2CCCC2)nc2c1ncn2[C@@H]1O[C@H](COCCO)[C@@H](O)[C@H]1O", "note": "[Example 129, 2-(cyclopentyloxy)-9-[5-O-(2-hydroxyethyl)-β-D-ribofuranosyl]-9H-purin-6-amine]", "values": [{"measurement": "MIC", "setting": "[2]", "value": 8, "unit": "µg/mL"}]}, {"smiles": "Nc1nc(OCC2CCCC2)nc2c1ncn2[C@@H]1O[C@H](CO)[C@@H](O)[C@H]1O", "note": "[Example 172, 2-(Cyclopentyl)methoxy-9-β-D-ribofuranosyl-9H-purine-6-amine]", "values": [{"measurement": "MIC", "setting": "[2]", "value": 2, "unit": "µg/mL"}, {"measurement": "IC50", "setting": "[1]", "value": 0.145, "unit": "µM"}]}, {"smiles": "C=C[C@H]1O[C@@H](n2cnc3c(N)nc(OC4CCCC4)nc32)[C@H](O)[C@@H]1O", "note": "[Example 259, 2-(cyclopentyloxy)-9-(5,6-dideoxy-β-D-ribo-hex-5-enofuranosyl)-9H-purin-6-amine]", "values": [{"measurement": "IC50", "setting": "[1]", "value": 0.5, "unit": "µM"}]}, {"smiles": "COc1cccc(CO[C@H]2[C@@H](O)[C@H](n3cnc4c(N)nc(OC5CCCC5)nc43)O[C@@H]2C)c1", "note": "[Example 356]", "values": [{"measurement": "MIC", "setting": "[2]", "value": 4, "unit": "µg/mL"}]}]}
